# Measured values published in paper PMC11666850, “Development and evaluation of deuterated [^18F]JHU94620 isotopologues for the non-invasive assessment of the cannabinoid type 2 receptor in brain” (EJNMMI Radiopharmacy and Chemistry, 2024).
# Legend:
# [1] = Ex vivo radiometabolite analysis in CD-1 mice
# Description: Female adult CD-1 mice (25–42 g body weight) were used for radiometabolite analysis of [^18F]JHU94620-d4 (n = 2, 33 and 34 MBq) and [^18F]JHU94620-d8 (n = 3, 26–33 MBq) at 30 min after intravenous tail vein injection of the radiotracer to allow for the comparison of radiometabolite analysis of [^18F]JHU94620 (Moldovan et al. [2016]). The mice were immobilized by short isoflurane narcosis for the injection of the radiotracer in a restrainer and awakened mice were kept in an isolated cage until euthanisation by cervical dislocation under isoflurane narcosis. Male Wistar rats (n = 12, 613–794 g) were used for radiometabolite analysis of [^18F]JHU94620-d8 at different time points (5, 15, 30 and 60 min p.i.) after intravenous tail vein injection of the radiotracer (37–74 MBq) for the correction of the input function in pharmacokinetic analysis. Rats were kept under isoflurane narcosis (gas mixture: 2.5% isoflurane and O2) on a warmed plate until euthanization by decapitation of deep narcotized animals. Plasma samples were obtained by centrifugation with 5500 g of blood samples for 2 min at 4 °C. Resected tissues brain and spleen were kept on ice and minced for 3 × 20 s with adding 0.5 to 1 mL of 0.9% NaCl using a Precellys lysing kit and Minilys homogenizer (Bertin Technologies SAS, Montigny-le-Bretonneux, France).
# The samples were further processed for subsequent radio-chromatographic analyses. Two consecutive extractions were performed in duplicates for plasma and brain determinations. Plasma, brain and spleen samples were added to the four time the volume of an ice-cold MeOH/H2O mixture (9:1, v/v). The samples were vortexed for 3 min, incubated on ice for 5 min and centrifuged at 8,600 g for 5 min. Supernatants were collected and the precipitates were re-dissolved in 100 µL of extraction solvent and the extraction procedure was repeated. The activities of supernatants and precipitates were measured in a γ-counter (1480 WIZARD, Perkin Elmer), and the extraction efficiencies were calculated as the ratio of radioactivity in the supernatant to the radioactivity in the original sample (supernatant + precipitate). The supernatants from both extractions were combined, concentrated at 70 °C under argon stream up to a remaining volume of 100 µL, and subsequently analysed by analytical radio-HPLC (method A or B).
# in vitro = in vitro ADME; settings: microsomes, pH 7.4
# Description: For microsomal incubations liver microsomes from human (HLM, 50 donors, 20 mg/mL) and rat (RLM, Sprague Dawley, 20 mg/mL) were purchased from Thermo Fisher Scientific GmbH (Dreieich, Germany). Testosterone and β-nicotinamide adenine dinucleotide 2′-phosphate reduced tetrasodium salt (NADPH) were purchased from Sigma-Aldrich (Merck KGaA, Darmstadt, Germany) and Dulbecco’s PBS (DPBS) (without Ca^2+ and Mg^2+) was purchased from Biochrom GmbH (Berlin, Germany). Analyses of samples for comparison of radiometabolite patterns were performed by radio-HPLC using method B, for determination of time dependency of the metabolic depletion using method C.
# The final concentrations are given in brackets. […] The mixtures were vortexed and shaken gently at 37 °C using the BioShake iQ (QUANTIFOIL Instruments, Jena, Germany) for 5, 10, 15, 30, 45, and 60 min (for HLM) or 15, 30, 45, and 60 min (for RLM). […] The supernatants were separated and analyzed by radio-HPLC to determine the fractions of unchanged [^18F]JHU94620-d8. Efficiencies of extracted activity were determined as described in “Quantification of radiometabolites”. […]
# To determine the metabolic stability in HLM and RLM, both the natural logarithm of the determined unchanged percentage of [^18F]JHU94620-d8 was plotted versus incubation time, which allowed the calculation of the in vitro half-lives as described previously (Chai et al. [2022]).
# human CB2R (hCB2R) = molecular target: T1, human CB2R (hCB2R) (Homo sapiens, UniProt P34972); experiment: Homologous competition binding, CHO(hCB2R) cell membranes
# T1 construct: expressed in transfected cells; host or cells: CHO(hCB2R) cells, obtained from Paul L. Prather, University of Arkansas for Medical Sciences
# T1 sequence (P34972 whole entry): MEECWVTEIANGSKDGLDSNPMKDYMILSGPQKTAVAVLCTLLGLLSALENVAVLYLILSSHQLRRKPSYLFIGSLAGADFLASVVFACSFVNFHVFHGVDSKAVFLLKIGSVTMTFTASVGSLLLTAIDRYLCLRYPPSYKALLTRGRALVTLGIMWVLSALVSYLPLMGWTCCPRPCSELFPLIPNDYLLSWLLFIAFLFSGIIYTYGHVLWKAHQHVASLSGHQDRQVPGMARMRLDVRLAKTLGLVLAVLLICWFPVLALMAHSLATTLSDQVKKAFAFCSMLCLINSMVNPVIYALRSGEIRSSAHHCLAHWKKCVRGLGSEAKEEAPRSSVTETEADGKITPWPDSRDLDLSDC
# Description: For binding studies crude homogenates of CHO(hCB2R) cells (obtained from Paul L. Prather, Department of Pharmacology and Toxicology, College of Medicine, University of Arkansas for Medical Sciences, USA) were incubated with the reference compound (self-blocking) or the CB2R-specific partial agonist GW405833 (Tocris Bioscience, Bristol, UK) with indicated concentrations at room temperature for 90 min. The total volume of 1 mL of each sample consisted of 600 µL incubation buffer (50 mM Tris HCl pH7.4, 5 mM MgCl2, 1 mM EDTA and 1% Bovine Serum Albumin), 200 µL cell membrane homogenates, 100 µL competitor or binding buffer (total binding) and 100 µl of binding buffer with [^18F]JHU94620-d8 (about 100 kBq per vial, corresponding to 0.8 to 1.6 nM). Incubation was terminated by rapid filtration through a GF-B glass fibre filter, pre-treated with 0.5% PVP with 0.1% Tween 20 solution, using a 48-well cell harvester, washed six times with buffer and filter bound activity was subsequently measured in a γ-counter (1480 WIZARD, Perkin Elmer, Turku, Finland).
# The KD values were calculated with GraphPad Prism according to the modified Cheng-Prusoff method for homologous competitive binding studies, where the KD = Ki = IC50—[radioligand] and the Bmax = specific binding / [radioligand] / ((KD + [radioligand])) (Motulsky and Neubig [2000]), assuming a total protein content of 8.2% (1.3 10^–4 µg protein per voxel) in the spleen (Zaia et al. [2000]) or by determining the protein concentration of the cell membrane lysates using a BCA assay (Thermo Scientific, Braunschweig, Germany). The fractional occupancy defined as occupied binding sites per total binding sites is used to describe the binding fraction specifically bound to CB2R compared to unspecific binding, where [L] is the concentration of the ligand at the start of incubation.
# [2] = female, CD-1, mouse, in vivo, 30 min
smiles,measurement,setting,value
[2H]C([2H])([18F])C([2H])([2H])C([2H])([2H])C([2H])([2H])n1c(C)c(C)s/c1=N\C(=O)C1C(C)(C)C1(C)C [[^18F]JHU94620-d8],percentage printed at the radiotracer peak of the representative radio-HPLC chromatogram (Mice),"[1]; CD-1, mouse, in vivo, 30 min",80%
same,"parent fraction in brain, higher compared to the non-deuterated isotopologue","[1]; CD-1 mice, brain, 30 min p.i.",50%
same,parent fraction in brain,"[1]; CD-1 mice, brain, 30 min p.i., mean ± SD",0.72 ± 0.05
same,in vivo metabolic stability (comparison in words),"[1]; female, CD-1, mouse, in vivo, 0.5 h",slightly superior to [^18F]JHU94620-d4
same,parent fraction in blood plasma,[1]; [2],0.13 ± 0.04
same,parent fraction in spleen,[1]; [2],0.87 ± 0.10
same,half-life,"in vitro; Sprague Dawley, rat",10.8 ± 2.4 min
same,half-life,in vitro; human,2.1 ± 0.7 min
same,Kd,human CB2R (hCB2R),1.47 nM
same,Bmax,human CB2R (hCB2R); CHO(hCB2R) cell membrane fractions,2.7 pmol mg^−1 protein
